US9085555B2, “Complement pathway modulators and uses thereof” (priority 2011, dated 2015)
Counter-ions that a name gives are not always drawn.

The compounds below were run against Factor D (Homo sapiens (Human), UniProt P00746) (assay: biochemical). Settings: read-out: IC50.
Chain of Factor D (P00746 26-253): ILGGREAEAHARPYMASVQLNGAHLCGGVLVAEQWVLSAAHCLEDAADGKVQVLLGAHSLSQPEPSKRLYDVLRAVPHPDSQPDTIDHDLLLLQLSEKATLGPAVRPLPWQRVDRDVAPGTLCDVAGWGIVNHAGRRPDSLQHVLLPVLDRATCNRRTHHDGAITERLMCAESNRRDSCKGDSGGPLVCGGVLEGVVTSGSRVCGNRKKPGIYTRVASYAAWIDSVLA
Assay type: biochemical
In the case of CC(=O)c1cn(CC(=O)N2[C@@H]3C[C@@H]3C[C@H]2C(=O)NCc2cccc(Cl)c2F)c2cnc(C)cc12 [Example 646, (1R,3S,5R)-2-[2-(3-Acetyl-5-methyl-pyrrolo[2,3-c]pyridin-1-yl)-acetyl]-2-aza-bicyclo [3.1.0]hexane-3-carboxylic acid 3-chloro-2-fluoro-benzylamide], the IC50 is reported as 0.012 µM.
COc1cc2c(C(C)=O)nn(CC(=O)N3[C@@H]4C[C@@H]4C[C@H]3C(=O)NCc3cccc(Cl)c3F)c2cc1OC [Example 647, (1R,3S,5R)-2-[2-(3-Acetyl-5,6-dimethoxy-indazol-1-yl)-acetyl]-2-aza-bicyclo [3.1.0]hexane-3-carboxylic acid 3-chloro-2-fluoro-benzylamide] showed an IC50 of 0.016 µM.
Compound CC(=O)c1cn(CC(=O)N2[C@@H]3C[C@@H]3C[C@H]2C(=O)NCc2cccc(Cl)c2F)c2ncncc12 [Example 649, (1R,3S,5R)-2-[2-(5-Acetyl-pyrrolo[2,3-d]pyrimidin-7-yl)-acetyl]-2-aza-bicyclo [3.1.0]hexane-3-carboxylic acid 3-chloro-2-fluoro-benzylamide] has an IC50 of 0.441 µM.
NC(=O)c1nn(CC(=O)N2[C@@H]3C[C@@H]3C[C@H]2C(=O)NCc2cccc(Cl)c2F)c2ccncc12 [Example 650, 1-{2-[(1R,3S,5R)-3-(3-Chloro-2-fluoro-benzylcarbamoyl)-2-aza-bicyclo[3.1.0]hex-2-yl]-2-oxo-ethyl}-1H-pyrazolo[4,3-c]pyridine-3-carboxylic acid amide] showed an IC50 of 0.022 µM.
Work on Cc1cc2c(C(N)=O)nn(CC(=O)N3[C@@H]4C[C@@H]4C[C@H]3C(=O)NCc3cccc(Cl)c3F)c2cn1 [Example 651, 1-{2-[(1R,3S,5R)-3-(3-Chloro-2-fluoro-benzylcarbamoyl)-2-aza-bicyclo[3.1.0]hex-2-yl]-2-oxo-ethyl}-5-methyl-1H-pyrazolo[3,4-c]pyridine-3-carboxylic acid amide] yielded an IC50 of 0.021 µM.
Work on O=C(CO)c1nn(CC(=O)N2[C@@H]3C[C@@H]3C[C@H]2C(=O)NCc2cccc(Cl)c2F)c2ccccc12 [Example 652, (1R,3S,5R)-2-{2-[3-(2-Hydroxy-acetyl)-indazol-1-yl]-acetyl}-2-aza-bicyclo [3.1.0]hexane-3-carboxylic acid 3-chloro-2-fluoro-benzylamide] yielded an IC50 of 0.019 µM.
For Cc1cc2c(cn1)c(C(N)=O)nn2CC(=O)N1[C@@H]2C[C@@H]2C[C@H]1C(=O)NCc1cccc(Cl)c1F [Example 653, 1-{2-[(1R,3S,5R)-3-(3-Chloro-2-fluoro-benzylcarbamoyl)-2-aza-bicyclo[3.1.0]hex-2-yl]-2-oxo-ethyl}-6-methyl-1H-pyrazolo[4,3-c]pyridine-3-carboxylic acid amide], the IC50 was 0.047 µM.
Compound NC(=O)c1nn(CC(=O)N2[C@@H]3C[C@@H]3C[C@H]2C(=O)NCc2cccc(Cl)c2F)c2ncccc12 [Example 654, 1-{2-[(1R,3S,5R)-3-(3-Chloro-2-fluoro-benzylcarbamoyl)-2-aza-bicyclo[3.1.0]hex-2-yl]-2-oxo-ethyl}-1H-pyrazolo[3,4-b]pyridine-3-carboxylic acid amide] has an IC50 of 0.018 µM.
CC(=O)c1cn(CC(=O)N2[C@@H]3C[C@@H]3C[C@H]2C(=O)NCc2cccc(Cl)c2F)c2nnccc12 [Example 655, (1R,3S,5R)-2-[2-(5-Acetyl-pyrrolo[2,3-c]pyridazin-7-yl)-acetyl]-2-aza-bicyclo [3.1.0]hexane-3-carboxylic acid 3-chloro-2-fluoro-benzylamide] was tested, and the IC50 was 0.091 µM.
NC(=O)c1nn(CC(=O)N2CCCC[C@H]2C(=O)NCc2cccc(Cl)c2F)c2cnccc12 [Example 656, 1-{2-[(S)-2-(3-Chloro-2-fluoro-benzylcarbamoyl)-piperidin-1-yl]-2-oxo-ethyl}-1H-pyrazolo[3,4-c]pyridine-3-carboxylic acid amide] showed an IC50 of 0.358 µM.
NC(=O)c1nn(CC(=O)N2CCS[C@H]2C(=O)NCc2cccc(Cl)c2F)c2cnccc12 [Example 657, 1-{2-[(S)-2-(3-Chloro-2-fluoro-benzylcarbamoyl)-thiazolidin-3-yl]-2-oxo-ethyl}-1H-pyrazolo[3,4-c]pyridine-3-carboxylic acid amide] gave an IC50 of 0.078 µM.
With CO[C@H]1[C@@H](C(=O)NCc2cccc(Cl)c2F)N(C(=O)Cn2cc(C(C)=O)c3cc(C)ncc32)C[C@@H]1F [Example 658, (2S,3S,4S)-1-[2-(3-Acetyl-5-methyl-pyrrolo[2,3-c]pyridin-1-yl)-acetyl]-4-fluoro-3-methoxy-pyrrolidine-2-carboxylic acid 3-chloro-2-fluoro-benzylamide formate] the IC50 was 0.024 µM.
CO[C@H]1[C@@H](C(=O)NC2(c3cccc(Cl)c3F)CC2)N(C(=O)Cn2nc(C(N)=O)c3cccnc32)C[C@@H]1F [Example 659, 1-(2-{(2S,3S,4S)-2-[1-(3-Chloro-2-fluoro-phenyl)-cyclopropylcarbamoyl]-4-fluoro-3-methoxy-pyrrolidin-1-yl}-2-oxo-ethyl)-1H-pyrazolo[3,4-b]pyridine-3-carboxylic acid amide] was tested, and the IC50 was 0.025 µM.
For CO[C@H]1[C@@H](C(=O)NC2(c3cccc(Cl)c3F)CC2)N(C(=O)Cn2nc(C(N)=O)c3cnccc32)C[C@@H]1F [Example 660, 1-(2-{(2S,3S,4S)-2-[1-(3-Chloro-2-fluoro-phenyl)-cyclopropylcarbamoyl]-4-fluoro-3-methoxy-pyrrolidin-1-yl}-2-oxo-ethyl)-1H-pyrazolo[4,3-c]pyridine-3-carboxylic acid amide], the IC50 was 0.016 µM.
In the case of CO[C@H]1[C@@H](C(=O)NCc2cccc(Cl)c2F)N(C(=O)Cn2nc(C(N)=O)c3cc(C)ncc32)C[C@@H]1F [Example 661, 1-{2-[(2S,3S,4S)-2-(3-Chloro-2-fluoro-benzylcarbamoyl)-4-fluoro-3-methoxy-pyrrolidin-1-yl]-2-oxo-ethyl}-5-methyl-1H-pyrazolo[3,4-c]pyridine-3-carboxylic acid amide], the IC50 is reported as 0.01 µM.
CO[C@H]1[C@@H](C(=O)NCc2cccc(Cl)c2F)N(C(=O)Cn2nc(C(N)=O)c3ccncc32)C[C@@H]1F [Example 662, 1-{2-[(2S,3S,4S)-2-(3-Chloro-2-fluoro-benzylcarbamoyl)-4-fluoro-3-methoxy-pyrrolidin-1-yl]-2-oxo-ethyl}-1H-pyrazolo[3,4-c]pyridine-3-carboxylic acid amide] was tested, and the IC50 was 0.013 µM.
For CO[C@H]1[C@@H](C(=O)NCc2cccc(Cl)c2F)N(C(=O)Cn2nc(C(N)=O)c3cnccc32)C[C@@H]1F [Example 663, 1-{2-[(2S,3S,4S)-2-(3-Chloro-2-fluoro-benzylcarbamoyl)-4-fluoro-3-methoxy-pyrrolidin-1-yl]-2-oxo-ethyl}-1H-pyrazolo[4,3-c]pyridine-3-carboxylic acid amide], the IC50 was 0.036 µM.
CO[C@H]1[C@@H](C(=O)N[C@H](C)c2cccc(Cl)c2F)N(C(=O)Cn2nc(C(N)=O)c3ccncc32)C[C@@H]1F [Example 664, 1-(2-{(2S,3S,4S)-2-[(R)-1-(3-Chloro-2-fluoro-phenyl)-ethylcarbamoyl]-4-fluoro-3-methoxy-pyrrolidin-1-yl}-2-oxo-ethyl)-1H-pyrazolo[3,4-c]pyridine-3-carboxylic acid amide] gave an IC50 of 0.024 µM.
For CO[C@H]1[C@@H](C(=O)N[C@H](C)c2cccc(Cl)c2F)N(C(=O)Cn2nc(C(N)=O)c3cnccc32)C[C@@H]1F [Example 665, 1-(2-{(2S,3S,4S)-2-[(R)-1-(3-Chloro-2-fluoro-phenyl)-ethylcarbamoyl]-4-fluoro-3-methoxy-pyrrolidin-1-yl}-2-oxo-ethyl)-1H-pyrazolo[4,3-c]pyridine-3-carboxylic acid amide], the IC50 was 0.058 µM.
Compound CC(=O)c1cn(CC(=O)N2[C@@H]3C[C@@H]3C[C@H]2C(=O)NCc2cccc(Cl)c2F)c2ccc(OCc3ncccn3)cc12 [Example 666, (1R,3S,5R)-2-{2-[3-Acetyl-5-(pyrimidin-2-ylmethoxy)-indol-1-yl]-acetyl}-2-aza-bicyclo [3.1.0]hexane-3-carboxylic acid 3-chloro-2-fluoro-benzylamide] has an IC50 of 0.006 µM.
In the case of CCO[C@H]1[C@@H](C(=O)NCc2cccc(Cl)c2F)N(C(=O)Cn2cc(C(C)=O)c3cc(C)ncc32)C[C@@H]1F [Example 667, (2S,3S,4S)-1-[2-(3-Acetyl-5-methyl-pyrrolo[2,3-c]pyridin-1-yl)-acetyl]-3-ethoxy-4-fluoro-pyrrolidine-2-carboxylic acid 3-chloro-2-fluoro-benzylamide formate], the IC50 is reported as 0.016 µM.
For NC(=O)c1nn(CC(=O)N2[C@@H]3C[C@@H]3C[C@H]2C(=O)Nc2cccc(Br)c2F)c2cnccc12 [Example 668, 1-{2-[(1R,3S,5R)-3-(3-Bromo-2-fluoro-phenylcarbamoyl)-2-aza-bicyclo[3.1.0]hex-2-yl]-2-oxo-ethyl}-1H-pyrazolo[3,4-c]pyridine-3-carboxylic acid amide], the IC50 was 0.019 µM.
Cc1cc2c(C(N)=O)nn(CC(=O)N3[C@@H]4C[C@@H]4C[C@H]3C(=O)Nc3cccc(Br)c3F)c2cn1 [Example 670, 1-{2-[(1R,3S,5R)-3-(3-Bromo-2-fluoro-phenylcarbamoyl)-2-aza-bicyclo[3.l.0]hex-2-yl]-2-oxo-ethyl}-5-methyl-1H-pyrazolo[3,4-c]pyridine-3-carboxylic acid amide] gave an IC50 of 0.09 µM.
CCc1cc2c(C(N)=O)nn(CC(=O)N3[C@@H]4C[C@@H]4C[C@H]3C(=O)Nc3cccc(Br)c3F)c2cn1 [Example 671, 1-{2-[(1R,3S,5R)-3-(3-Bromo-2-fluoro-phenylcarbamoyl)-2-aza-bicyclo[3.1.0]hex-2-yl]-2-oxo-ethyl}-5-ethyl-1H-pyrazolo[3,4-c]pyridine-3-carboxylic acid amide] showed an IC50 of 0.077 µM.
For CC(C)c1cccc(NC(=O)[C@@H]2C[C@H]3C[C@H]3N2C(=O)Cn2nc(C(N)=O)c3ccncc32)n1 [Example 673, 1-{2-[(1R,3S,5R)-3-(6-Isopropyl-pyridin-2-ylcarbamoyl)-2-aza-bicyclo [3.1.0]hex-2-yl]-2-oxo-ethyl}-1H-pyrazolo[3,4-c]pyridine-3-carboxylic acid amide], the IC50 was 0.157 µM.
In the case of NC(=O)c1nn(CC(=O)N2[C@@H]3C[C@@H]3C[C@H]2C(=O)Nc2cccc(C3CC3)c2F)c2ccccc12 [Example 674, 1-{2-[(1R,3S,5R)-3-(3-Cyclopropyl-2-fluoro-phenylcarbamoyl)-2-aza-bicyclo[3.2.1]hex-2-yl]-2-oxo-ethyl}-1H-indazole-3-carboxylic acid amide], the IC50 is reported as 0.075 µM.
